In US9480679B2, “Methods for treating malaria, tuberculosis and MAC diseases” (priority 2009, dated 2016):
Converted amounts (≈) assume the structure as drawn. “And” between values parts separate entries of the source, which are not always exact repeats. Equal values may be shown once. Read-outs that look alike come from different tables or passages of the source.

Legend:
[1] = test system: P. falciparum NF54; test: In vitro P. falciparum 120 hour assay (96+24); format: cell-based; details: Plasmodium falciparum
Protocol: EXAMPLE. In vitro and in vivo activity against different species of Plasmodium parasites. CEM-101 was tested against intra-erythrocytic forms of P. falciparum derived from asynchronous cultures of the strain […]. Parasite growth over 120 h was measured by the incorporation of radiolabelled [^3H]hypoxanthine (in hypoxanthine free culture medium) added after 96 h of drug incubation and 24 h prior to the termination of the test. CEM-101 was followed for 120 h. CEM-101 has delayed activity when compared to other agents.
In vitro P. falciparum data for CEM-101 in the 120 h Assay (96+24)

[2] = test system: P. berghei; test: Murine P. berghei model, oral 1x or 4x 100 mg/kg; format: in vivo; details: mice; for Parasitized RBC over 100 (made by FACS): individual animals
Protocol: EXAMPLE. CEM-101 activity in infected mice.
EXAMPLE. CEM-101 was tested in the murine P. berghei model as described by Vennerstrom et al. Nature 430(7002):900-904 (2004), the disclosure of which is incorporated herein by reference.

[3] = test system: P. falciparum NF54; test: In vitro P. falciparum 72 hour assay (48+24); format: cell-based; details: Plasmodium falciparum
Protocol: EXAMPLE. In vitro and in vivo activity against different species of Plasmodium parasites. CEM-101 was tested against intra-erythrocytic forms of P. falciparum derived from asynchronous cultures of the strain […]. […] CEM-101 was followed for 120 h. CEM-101 has delayed activity when compared to other agents.
In vitro P. falciparum data for CEM-101 in the 72 h Assay (48+24)

[4] = test system: M. avium complex; test: Broth dilution MIC versus M. avium complex isolates; format: cell-based, Mycobacterium avium
[5] = test system: M. avium LPR ATCC 49601; test: Murine model of M. avium infection, CFU in spleens and lungs; format: in vivo; details: mice, 200 mg/kg orally 5 days/week for 4 weeks; P<0.05
[6] = test system: M. tuberculosis; details: reported in vitro activity; cited from earlier work
[7] = test system: replicating M. tuberculosis; details: reported values; cited from earlier work
[8] = test system: replicating M. tuberculosis; test: Aero RLU (Relative Light Units under aerobic conditions), replicating culture; format: cell-based; details: two experiments
[9] = test system: replicating M. tuberculosis; test: Microplate Alamar Blue Assay (MABA), replicating culture; format: cell-based; details: two experiments
[10] = test system: M. avium; details: Bermudez 2001; cited from earlier work
[11] = test system: M. tuberculosis; details: 100 mg/kg once daily for 3 weeks (Zhu 2008); cited from earlier work
[12] = NF54, 120 h assay (96+24), read-out: IC50 NF54
[13] = NF54, 120 hour assay (96+24), read-out: IC50 NF54 Test 1
[14] = NF54, 120 hour assay (96+24), read-out: IC50 NF54 Test 2
[15] = NF54, 120 hour assay (96+24), read-out: IC50 NF54 Test 3

CCC[C@@H]1C[C@@H](C(=O)N[C@@H]([C@H]2O[C@H](SC)[C@H](O)[C@@H](O)[C@H]2O)[C@H](C)Cl)N(C)C1 [Clindamycin]
IC50 [1, 12]: 5.3 ng/mL (≈ 0.0125 µM) | IC50 [1, 13]: < 7.8 ng/mL | IC50 [1, 14]: 5.3 ng/mL (≈ 0.0125 µM) | IC50 [1, 15]: 5.3 ng/mL (≈ 0.0125 µM) | Cure (%) ([2]; 4 × 100 mg/kg oral, DMSO): 0% | Cure (%) ([2]; 4 × 100 mg/kg oral, HPMC): 0%

C[C@H]1[C@H](OC(=O)CCC(=O)O)O[C@@H]2O[C@@]3(C)CC[C@H]4[C@H](C)CC[C@@H]1[C@@]24OO3 [Artesunate]
IC50 ([3]; NF54, 72 h, read-out: IC50 NF54 TEST 1): 3 ng/mL (≈ 0.0078 µM) | IC50 ([3]; NF54, 72 h, read-out: IC50 NF54 TEST 2): 3.2 ng/mL (≈ 0.00832 µM) | IC50 ([3]; NF54, 72 h, read-out: IC50 NF54 TEST 3): 3 ng/mL (≈ 0.0078 µM) | IC50 ([3]; NF54, 72 h, read-out: IC50 NF54 TEST 4): 2.8 ng/mL (≈ 0.00728 µM) | IC50 ([3]; NF54, 72 h, read-out: IC50 NF54 Test 1): 3 ng/mL (≈ 0.0078 µM) | IC50 ([3]; NF54, 72 h, read-out: IC50 NF54 Test 2): 3.2 ng/mL (≈ 0.00832 µM) | IC50 ([3]; NF54, 72 h, read-out: IC50 NF54 Test 3): 3 ng/mL (≈ 0.0078 µM) | IC50 ([3]; NF54, 72 h, read-out: IC50 NF54 Test 4): 2.8 ng/mL (≈ 0.00728 µM) | IC50 ([1]; NF54, 120 h, read-out: IC50 NF54): 3.3 ng/mL (≈ 0.00858 µM) | IC50 ([1]; NF54, 120 h, read-out: IC50 NF54 Test 1): 4.2 ng/mL (≈ 0.0109 µM) | IC50 ([1]; NF54, 120 h, read-out: IC50 NF54 Test 2): 3.9 ng/mL (≈ 0.0101 µM) | IC50 ([1]; NF54, 120 h, read-out: IC50 NF54 Test 3): 3.3 ng/mL (≈ 0.00858 µM)

CCN(CC)CCCC(C)Nc1ccnc2cc(Cl)ccc12 (stereo not shown) [Chloroquine]
IC50 ([3]; NF54, 72 h assay (48+24), read-out: IC50 NF54 TEST 1): 4.4 ng/mL (≈ 0.0138 µM) | IC50 ([3]; NF54, 72 h assay (48+24), read-out: IC50 NF54 TEST 2): 5.4 ng/mL (≈ 0.0169 µM) | IC50 ([3]; NF54, 72 h assay (48+24), read-out: IC50 NF54 TEST 3): 4.4 ng/mL (≈ 0.0138 µM) | IC50 ([3]; NF54, 72 h assay (48+24), read-out: IC50 NF54 TEST 4): 4.8 ng/mL (≈ 0.015 µM) | IC50 ([3]; NF54, 72 hour assay (48+24), read-out: IC50 NF54 Test 1): 4.4 ng/mL (≈ 0.0138 µM) | IC50 ([3]; NF54, 72 hour assay (48+24), read-out: IC50 NF54 Test 2): 5.4 ng/mL (≈ 0.0169 µM) | IC50 ([3]; NF54, 72 hour assay (48+24), read-out: IC50 NF54 Test 3): 4.4 ng/mL (≈ 0.0138 µM) | IC50 ([3]; NF54, 72 hour assay (48+24), read-out: IC50 NF54 Test 4): 4.8 ng/mL (≈ 0.015 µM) | IC50 [1, 12]: 4.7 ng/mL (≈ 0.0147 µM) | IC50 [1, 13]: 4.6 ng/mL (≈ 0.0144 µM) | IC50 [1, 14]: 4.6 ng/mL (≈ 0.0144 µM) | IC50 [1, 15]: 4.7 ng/mL (≈ 0.0147 µM)

CC[C@H]1OC(=O)[C@H](C)[C@@H](O[C@H]2C[C@@](C)(OC)[C@@H](O)[C@H](C)O2)[C@H](C)[C@@H](O[C@@H]2O[C@H](C)C[C@H](N(C)C)[C@H]2O)[C@](C)(OC)C[C@@H](C)C(=O)[C@H](C)[C@@H](O)[C@]1(C)O [Clarithromycin, reference compound]
MIC ([4]; Mycobacterium avium): 128000 ng/mL (≈ 171 µM) | MIC ([4]; Mycobacterium avium, isolate MAC 101, clarithromycin susceptible, read-out: MIC): 125 ng/mL (≈ 0.167 µM) | MIC ([4]; Mycobacterium avium, isolate MAC 103, clarithromycin resistant, read-out: MIC): 64000 ng/mL (≈ 85.6 µM) | MIC ([4]; Mycobacterium avium, isolate MAC 108, clarithromycin resistant, read-out: MIC): 64000 ng/mL (≈ 85.6 µM) | MIC ([4]; Mycobacterium avium, isolate MAC 110, clarithromycin resistant, read-out: MIC): 64000 ng/mL (≈ 85.6 µM) | MIC ([4]; Mycobacterium avium, isolate MAC 216, clarithromycin resistant, read-out: MIC): 32000 ng/mL (≈ 42.8 µM) | MIC ([4]; Mycobacterium avium, isolate MAC 309, clarithromycin resistant, read-out: MIC): 64000 ng/mL (≈ 85.6 µM) | MIC ([4]; Mycobacterium avium, isolate MAC 320, clarithromycin resistant, read-out: MIC): 64000 ng/mL (≈ 85.6 µM) | MIC ([4]; Mycobacterium avium, isolate MAC 623, clarithromycin resistant, read-out: MIC): 64000 ng/mL (≈ 85.6 µM) | MIC ([4]; Mycobacterium avium, isolate MAC 625, clarithromycin resistant, read-out: MIC): 64000 ng/mL (≈ 85.6 µM) | MIC ([4]; Mycobacterium avium, isolate MAC 643, clarithromycin resistant, read-out: MIC): 64000 ng/mL (≈ 85.6 µM) | MIC ([4]; Mycobacterium avium, isolate MAC 1408, clarithromycin susceptible, read-out: MIC): 250 ng/mL (≈ 0.334 µM) | MIC ([4]; Mycobacterium avium, isolate MAC 3404.4, clarithromycin susceptible, read-out: MIC): 125 ng/mL (≈ 0.167 µM) | MIC ([4]; Mycobacterium avium, isolate MAC 9141, clarithromycin susceptible, read-out: MIC): 250 ng/mL (≈ 0.334 µM) | MIC ([4]; Mycobacterium avium, isolate MAC FAR, clarithromycin susceptible, read-out: MIC): 125 ng/mL (≈ 0.167 µM) | MIC ([4]; Mycobacterium avium, isolate MAC GRL, clarithromycin susceptible, read-out: MIC): 2000 ng/mL (≈ 2.67 µM) | MIC ([4]; Mycobacterium avium, isolate MAC KAL, clarithromycin susceptible, read-out: MIC): 8000 ng/mL (≈ 10.7 µM) | MIC ([4]; Mycobacterium avium, isolate MAC KZL, clarithromycin susceptible, read-out: MIC): 1000 ng/mL (≈ 1.34 µM) | MIC ([4]; Mycobacterium avium, isolate MAC Pry, clarithromycin resistant, read-out: MIC): 64000 ng/mL (≈ 85.6 µM) | MIC ([4]; Mycobacterium avium, isolate MAC SMT, clarithromycin susceptible, read-out: MIC): 250 ng/mL (≈ 0.334 µM) | MIC ([4]; Mycobacterium avium, isolate MAC TEL, clarithromycin susceptible, read-out: MIC): 2000 ng/mL (≈ 2.67 µM) | MIC ([4]; Mycobacterium avium, isolate MAC TRY, clarithromycin susceptible, read-out: MIC): 500 ng/mL (≈ 0.668 µM) | MIC ([4]; isolate MAC 224, clarithromycin resistant): 128000 ng/mL (≈ 171 µM) | reduction in growth of MAC LPR in the spleens and lungs compared to the late controls [5]: significant | MIC [6]: 8000 ng/mL (≈ 10.7 µM) | MABA MIC [7]: 8000 ng/mL | Aero RLU [8]: 22.46 µM and 18.82 µM | MIC ([9]; Mycobacterium tuberculosis): 14.5 µM (≈ 10.9 µg/mL) | MIC [9]: 13.34 µM (≈ 9.98 µg/mL)

CC[C@H]1OC(=O)[C@H](C)C(=O)[C@H](C)[C@@H](O[C@@H]2O[C@H](C)C[C@H](N(C)C)[C@H]2O)[C@](C)(OC)C[C@@H](C)C(=O)[C@H](C)[C@H]2N(CCCCn3cnc(-c4cccnc4)c3)C(=O)O[C@]12C [telithromycin]
bactericidal activity against M. avium [10]: lack of significant bactericidal activity | MABA MIC [7]: 128000 ng/mL

CC[C@H]1OC(=O)[C@H](C)[C@@H](O[C@H]2C[C@@](C)(OC)[C@@H](O)[C@H](C)O2)[C@H](C)[C@@H](O[C@@H]2O[C@H](C)C[C@H](N(C)C)[C@H]2O)[C@](C)(O)C[C@@H](C)CN(C)[C@H](C)[C@@H](O)[C@]1(C)O [Azithromycin, reference compound]
Activity (%) ([2]; 1 × 100 mg/kg oral, DMSO): 70.39% | Survival ([2]; 1 × 100 mg/kg oral, DMSO): 14.0 days | Activity (%) ([2]; 1 × 100 mg/kg oral, HPMC): 65.19% | Survival ([2]; 1 × 100 mg/kg oral, HPMC): 14.0 days | Activity (%) ([2]; 4 × 100 mg/kg oral, DMSO): 99.11% | Cure (%) ([2]; 4 × 100 mg/kg oral, DMSO): 0% | Survival ([2]; 4 × 100 mg/kg oral, DMSO, survivors sacrificed on Day 31): 30.0 days | Activity (%) ([2]; 4 × 100 mg/kg oral, HPMC): 99.13% | Cure (%) ([2]; 4 × 100 mg/kg oral, HPMC): 0% | Survival ([2]; 4 × 100 mg/kg oral, HPMC, survivors sacrificed on Day 31): 24.0 days | blood from treated animals parasite free or not ([2]; 4× 100 mg/kg p.o.): is not | Visual Observation (parasites in blood) ([2]; 4× 100 mg/kg p.o., DMSO): pos | Parasitized RBC over 100 (made by FACS) ([2]; 4× 100 mg/kg p.o., DMSO, 100 mg/kg): 34.32 and 2.20 and 36.31 | Visual Observation (parasites in blood) ([2]; 4× 100 mg/kg p.o., HPMC): pos | Parasitized RBC over 100 (made by FACS) ([2]; 4× 100 mg/kg p.o., HPMC): 74.04

CC[C@H]1OC(=O)[C@H](C)C(=O)[C@H](C)[C@@H](O[C@@H]2O[C@H](C)C[C@H](N(C)C)[C@H]2O)[C@](C)(OC/C=C/c2cnc3ccccc3c2)C[C@@H](C)C(=O)[C@H](C)[C@H]2NC(=O)O[C@@]21C [Cethromycin]
bactericidal activity against M. avium [10]: lack of significant bactericidal activity | reduction of CFU in the lungs of mice [11]: failed to significantly reduce CFU | MABA MIC [7]: 4000 ng/mL
